Reference: ChEMBL document CHEMBL1649285, “In vivo efficacy of 1- and 2-gram human simulated prolonged infusions of doripenem against Pseudomonas aeruginosa” (Antimicrob Agents Chemother, 2009)
Values after ≈ are worked out from the molar mass of the structure shown.

Assays:
Pseudomonas aeruginosa [1] = assay: Antimicrobial activity against Pseudomonas aeruginosa isolate 1036 by broth microdilution method; format: functional
Pseudomonas aeruginosa [2] = assay: Antimicrobial activity against Pseudomonas aeruginosa isolate 944 by broth microdilution method; format: functional
Pseudomonas aeruginosa [3] = assay: Antimicrobial activity against Pseudomonas aeruginosa isolate 1050 by broth microdilution method; format: functional
Pseudomonas aeruginosa [4] = assay: Antimicrobial activity against Pseudomonas aeruginosa isolate 1060 by broth microdilution method; format: functional
Pseudomonas aeruginosa [5] = assay: Antimicrobial activity against Pseudomonas aeruginosa isolate 1095 by broth microdilution method; format: functional
Pseudomonas aeruginosa [6] = assay: Antimicrobial activity against Pseudomonas aeruginosa isolate 22 by broth microdilution method; format: functional
Pseudomonas aeruginosa [7] = assay: Antimicrobial activity against Pseudomonas aeruginosa isolate 878 by broth microdilution method; format: functional
Pseudomonas aeruginosa [8] = assay: Antimicrobial activity against Pseudomonas aeruginosa isolate 896 by broth microdilution method; format: functional
Pseudomonas aeruginosa [9] = assay: Antimicrobial activity against Pseudomonas aeruginosa isolate 988 by broth microdilution method; format: functional
Pseudomonas aeruginosa [10] = assay: Antimicrobial activity against Pseudomonas aeruginosa isolate 1006 by broth microdilution method; format: functional
Pseudomonas aeruginosa [11] = assay: Antimicrobial activity against Pseudomonas aeruginosa isolate 856 by broth microdilution method; format: functional
Pseudomonas aeruginosa [12] = assay: Antimicrobial activity against Pseudomonas aeruginosa isolate 913 by broth microdilution method; format: functional
Pseudomonas aeruginosa [13] = assay: Antimicrobial activity against Pseudomonas aeruginosa isolate 927 by broth microdilution method; format: functional
Pseudomonas aeruginosa [14] = assay: Antimicrobial activity against Pseudomonas aeruginosa isolate 968 by broth microdilution method; format: functional
Pseudomonas aeruginosa [15] = assay: Antimicrobial activity against Pseudomonas aeruginosa isolate 971 by broth microdilution method; format: functional
Pseudomonas aeruginosa [16] = assay: Antimicrobial activity against Pseudomonas aeruginosa isolate 821 by broth microdilution method; format: functional
Pseudomonas aeruginosa [17] = assay: Antimicrobial activity against Pseudomonas aeruginosa isolate 1080 by broth microdilution method; format: functional
Pseudomonas aeruginosa [18] = assay: Antimicrobial activity against Pseudomonas aeruginosa isolate 1093 by broth microdilution method; format: functional
[19] = fT>MIC in Pseudomonas aeruginosa selected at 2 ug/ml MIC infected human at 1 g, iv administered as 4 hrs infusion every 8 hrs; format: functional
[20] = fT>MIC in Pseudomonas aeruginosa selected at 4 ug/ml MIC infected human at 1 g, iv administered as 4 hrs infusion every 8 hrs; format: functional
[21] = fT>MIC in Pseudomonas aeruginosa selected at 8 ug/ml MIC infected human at 1 g, iv administered as 4 hrs infusion every 8 hrs; format: functional
[22] = fT>MIC in Pseudomonas aeruginosa selected at 16 ug/ml MIC infected human at 1 g, iv administered as 4 hrs infusion every 8 hrs; format: functional
[23] = fT>MIC in Pseudomonas aeruginosa selected at 32 ug/ml MIC infected human at 1 g, iv administered as 4 hrs infusion every 8 hrs; format: functional
[24] = fT>MIC in Pseudomonas aeruginosa selected at 2 ug/ml MIC infected ICR mouse at 1 g, sc administered 2 hrs post infection every 8 hrs; format: functional
[25] = fT>MIC in Pseudomonas aeruginosa selected at 4 ug/ml MIC infected ICR mouse at 1 g, sc administered 2 hrs post infection every 8 hrs; format: functional
[26] = fT>MIC in Pseudomonas aeruginosa selected at 8 ug/ml MIC infected ICR mouse at 1 g, sc administered 2 hrs post infection every 8 hrs; format: functional
[27] = fT>MIC in Pseudomonas aeruginosa selected at 16 ug/ml MIC infected ICR mouse at 1 g, sc administered 2 hrs post infection every 8 hrs; format: functional
[28] = fT>MIC in Pseudomonas aeruginosa selected at 32 ug/ml MIC infected ICR mouse at 1 g, sc administered 2 hrs post infection every 8 hrs; format: functional
[29] = fT>MIC in Pseudomonas aeruginosa selected at 2 ug/ml MIC infected human at 2 g, iv administered as 4 hrs infusion every 8 hrs; format: functional
[30] = fT>MIC in Pseudomonas aeruginosa selected at 4 ug/ml MIC infected human at 2 g, iv administered as 4 hrs infusion every 8 hrs; format: functional
[31] = fT>MIC in Pseudomonas aeruginosa selected at 8 ug/ml MIC infected human at 2 g, iv administered as 4 hrs infusion every 8 hrs; format: functional
[32] = fT>MIC in Pseudomonas aeruginosa selected at 16 ug/ml MIC infected human at 2 g, iv administered as 4 hrs infusion every 8 hrs; format: functional
[33] = fT>MIC in Pseudomonas aeruginosa selected at 32 ug/ml MIC infected human at 2 g, iv administered as 4 hrs infusion every 8 hrs; format: functional
[34] = fT>MIC in Pseudomonas aeruginosa selected at 2 ug/ml MIC infected ICR mouse at 2 g, sc administered 2 hrs post infection every 8 hrs; format: functional
[35] = fT>MIC in Pseudomonas aeruginosa selected at 4 ug/ml MIC infected ICR mouse at 2 g, sc administered 2 hrs post infection every 8 hrs; format: functional
[36] = fT>MIC in Pseudomonas aeruginosa selected at 8 ug/ml MIC infected ICR mouse at 2 g, sc administered 2 hrs post infection every 8 hrs; format: functional
[37] = fT>MIC in Pseudomonas aeruginosa selected at 16 ug/ml MIC infected ICR mouse at 2 g, sc administered 2 hrs post infection every 8 hrs; format: functional
[38] = fT>MIC in Pseudomonas aeruginosa selected at 32 ug/ml MIC infected ICR mouse at 2 g, sc administered 2 hrs post infection every 8 hrs; format: functional
Mus musculus [39] = assay: fCmax in ICR mouse at 1 g, sc administered 2 hrs post infection every 8 hrs; format: ADME, organism-based; details: in vivo
Mus musculus [40] = assay: fAUC in ICR mouse at 1 g, sc administered 2 hrs post infection every 8 hrs; format: ADME, organism-based; details: in vivo
Mus musculus [41] = assay: fCmax in ICR mouse at 2 g, sc administered 2 hrs post infection every 8 hrs; format: ADME, organism-based; details: in vivo
Mus musculus [42] = assay: fAUC in ICR mouse at 2 g, sc administered 2 hrs post infection every 8 hrs; format: ADME, organism-based; details: in vivo
Homo sapiens [43] = assay: fCmax in human at 1 g, iv administered as 4 hrs infusion every 8 hrs; format: ADME, organism-based; details: in vivo
Homo sapiens [44] = assay: fAUC in human at 1 g, iv administered as 4 hrs infusion every 8 hrs; format: ADME, organism-based; details: in vivo
Homo sapiens [45] = assay: fCmax in human at 2 g, iv administered as 4 hrs infusion every 8 hrs; format: ADME, organism-based; details: in vivo
Homo sapiens [46] = assay: fAUC in human at 2 g, iv administered as 4 hrs infusion every 8 hrs; format: ADME, organism-based; details: in vivo
Pseudomonas aeruginosa [47] = assay: Antimicrobial activity against Pseudomonas aeruginosa selected at MIC […] to […] ug/ml infected ICR mouse assessed as reduction in bacterial load at 1g, sc administered 2 hrs post infection every 8 hrs; format: functional
Pseudomonas aeruginosa [48] = assay: Antimicrobial activity against Pseudomonas aeruginosa selected at MIC […] to […] ug/ml infected ICR mouse assessed as reduction in bacterial load at 2g, sc administered 2 hrs post infection every 8 hrs; format: functional

## CC(C)(O/N=C(\C(=O)N[C@@H]1C(=O)N2C(C(=O)[O-])=C(C[n+]3ccccc3)CS[C@H]12)c1csc(N)n1)C(=O)O [CEFTAZIDIME]
Pseudomonas aeruginosa [1]
  MIC: 2 µg/mL (≈ 3.66 µM)
Pseudomonas aeruginosa [2]
  MIC: 4 µg/mL (≈ 7.32 µM)
Pseudomonas aeruginosa [3]
  MIC: 3 µg/mL (≈ 5.49 µM)
Pseudomonas aeruginosa [4]
  MIC: 2 µg/mL (≈ 3.66 µM)
Pseudomonas aeruginosa [5]
  MIC: 16 µg/mL (≈ 29.3 µM)
Pseudomonas aeruginosa [6]
  MIC: 16 µg/mL (≈ 29.3 µM)
Pseudomonas aeruginosa [7]
  MIC: 12 µg/mL (≈ 22 µM)
Pseudomonas aeruginosa [8]
  MIC: 12 µg/mL (≈ 22 µM)
Pseudomonas aeruginosa [9]
  MIC: 6 µg/mL (≈ 11 µM)
Pseudomonas aeruginosa [10]
  MIC: 4 µg/mL (≈ 7.32 µM)
Pseudomonas aeruginosa [11]
  MIC: > 256 µg/mL
Pseudomonas aeruginosa [12]
  MIC: 24 µg/mL (≈ 43.9 µM)
Pseudomonas aeruginosa [13]
  MIC: 8 µg/mL (≈ 14.6 µM)
Pseudomonas aeruginosa [14]
  MIC: 24 µg/mL (≈ 43.9 µM)
Pseudomonas aeruginosa [15]
  MIC: 48 µg/mL (≈ 87.8 µM)
Pseudomonas aeruginosa [16]
  MIC: 64 µg/mL (≈ 117 µM)
Pseudomonas aeruginosa [17]
  MIC: 16 µg/mL (≈ 29.3 µM)
Pseudomonas aeruginosa [18]
  MIC: 4 µg/mL (≈ 7.32 µM)

## C[C@@H](O)[C@H]1C(=O)N2C(C(=O)O)=C(S[C@@H]3CN[C@H](C(=O)N(C)C)C3)[C@H](C)[C@H]12 [MEROPENEM]
Pseudomonas aeruginosa [1]
  MIC: 4 µg/mL (≈ 10.4 µM)
Pseudomonas aeruginosa [2]
  MIC: 12 µg/mL (≈ 31.3 µM)
Pseudomonas aeruginosa [3]
  MIC: ≥ 32 µg/mL
Pseudomonas aeruginosa [4]
  MIC: 4 µg/mL (≈ 10.4 µM)
Pseudomonas aeruginosa [5]
  MIC: 4 µg/mL (≈ 10.4 µM)
Pseudomonas aeruginosa [6]
  MIC: 16 µg/mL (≈ 41.7 µM)
Pseudomonas aeruginosa [7]
  MIC: ≥ 32 µg/mL
Pseudomonas aeruginosa [8]
  MIC: 12 µg/mL (≈ 31.3 µM)
Pseudomonas aeruginosa [9]
  MIC: 16 µg/mL (≈ 41.7 µM)
Pseudomonas aeruginosa [10]
  MIC: ≥ 32 µg/mL
Pseudomonas aeruginosa [11]
  MIC: ≥ 32 µg/mL
Pseudomonas aeruginosa [12]
  MIC: ≥ 32 µg/mL
Pseudomonas aeruginosa [13]
  MIC: ≥ 32 µg/mL
Pseudomonas aeruginosa [14]
  MIC: ≥ 32 µg/mL
Pseudomonas aeruginosa [15]
  MIC: ≥ 32 µg/mL
Pseudomonas aeruginosa [16]
  MIC: ≥ 32 µg/mL
Pseudomonas aeruginosa [17]
  MIC: ≥ 32 µg/mL
Pseudomonas aeruginosa [18]
  MIC: ≥ 32 µg/mL

## O=C(O)c1cn(C2CC2)c2cc(N3CCNCC3)c(F)cc2c1=O [CIPROFLOXACIN]
Pseudomonas aeruginosa [1]
  MIC: 3 µg/mL (≈ 9.05 µM)
Pseudomonas aeruginosa [2]
  MIC: 4 µg/mL (≈ 12.1 µM)
Pseudomonas aeruginosa [3]
  MIC: > 32 µg/mL
Pseudomonas aeruginosa [7]
  MIC: > 32 µg/mL
Pseudomonas aeruginosa [9]
  MIC: 4 µg/mL (≈ 12.1 µM)
Pseudomonas aeruginosa [11]
  MIC: > 32 µg/mL
Pseudomonas aeruginosa [13]
  MIC: > 32 µg/mL
Pseudomonas aeruginosa [14]
  MIC: > 32 µg/mL
Pseudomonas aeruginosa [15]
  MIC: > 32 µg/mL
Pseudomonas aeruginosa [16]
  MIC: > 32 µg/mL
Pseudomonas aeruginosa [17]
  MIC: > 32 µg/mL
Pseudomonas aeruginosa [18]
  MIC: > 32 µg/mL

## C[C@@H](O)[C@H]1C(=O)N2C(C(=O)O)=C(S[C@@H]3CN[C@H](CNS(N)(=O)=O)C3)[C@H](C)[C@H]12 [DORIPENEM]
Pseudomonas aeruginosa [1]
  MIC: 2 µg/mL (≈ 4.76 µM)
Pseudomonas aeruginosa [2]
  MIC: 4 µg/mL (≈ 9.51 µM)
Pseudomonas aeruginosa [3]
  MIC: 4 µg/mL (≈ 9.51 µM)
Pseudomonas aeruginosa [4]
  MIC: 4 µg/mL (≈ 9.51 µM)
Pseudomonas aeruginosa [5]
  MIC: 4 µg/mL (≈ 9.51 µM)
Pseudomonas aeruginosa [6]
  MIC: 8 µg/mL (≈ 19 µM)
Pseudomonas aeruginosa [7]
  MIC: 8 µg/mL (≈ 19 µM)
Pseudomonas aeruginosa [8]
  MIC: 8 µg/mL (≈ 19 µM)
Pseudomonas aeruginosa [9]
  MIC: 8 µg/mL (≈ 19 µM)
Pseudomonas aeruginosa [10]
  MIC: 8 µg/mL (≈ 19 µM)
Pseudomonas aeruginosa [11]
  MIC: 16 µg/mL (≈ 38 µM)
Pseudomonas aeruginosa [12]
  MIC: 16 µg/mL (≈ 38 µM)
Pseudomonas aeruginosa [13]
  MIC: 16 µg/mL (≈ 38 µM)
Pseudomonas aeruginosa [14]
  MIC: 16 µg/mL (≈ 38 µM)
Pseudomonas aeruginosa [15]
  MIC: 16 µg/mL (≈ 38 µM)
Pseudomonas aeruginosa [16]
  MIC: 32 µg/mL (≈ 76.1 µM)
Pseudomonas aeruginosa [17]
  MIC: 32 µg/mL (≈ 76.1 µM)
Pseudomonas aeruginosa [18]
  MIC: 32 µg/mL (≈ 76.1 µM)
[19]
  fT>MIC: 80%
[20]
  fT>MIC: 65%
[21]
  fT>MIC: 50%
[22]
  fT>MIC: 0%
[23]
  fT>MIC: 0%
[24]
  fT>MIC: 82.5%
[25]
  fT>MIC: 70%
[26]
  fT>MIC: 52.5%
[27]
  fT>MIC: 0%
[28]
  fT>MIC: 0%
[29]
  fT>MIC: 95%
[30]
  fT>MIC: 80%
[31]
  fT>MIC: 65%
[32]
  fT>MIC: 50%
[33]
  fT>MIC: 0%
[34]
  fT>MIC: 95%
[35]
  fT>MIC: 82.5%
[36]
  fT>MIC: 70%
[37]
  fT>MIC: 52.5%
[38]
  fT>MIC: 0%
Mus musculus [39]
  fCmax: 15.9 µg/mL
Mus musculus [40]
  fAUC: 68600 ng·h/mL
Mus musculus [41]
  fCmax: 31.9 µg/mL
Mus musculus [42]
  fAUC: 137100 ng·h/mL
Homo sapiens [43]
  fCmax: 15.6 µg/mL
Homo sapiens [44]
  fAUC: 64700 ng·h/mL
Homo sapiens [45]
  fCmax: 31.2 µg/mL
Homo sapiens [46]
  fAUC: 129300 ng·h/mL
Pseudomonas aeruginosa [47]
  log10cfu: >=2
Pseudomonas aeruginosa [48]
  log10cfu: >=2
